According to US9850251B2, “Imidazole derivative used as antiviral agent and use therof in preparation of medicament” (priority 2013, dated 2017):

What was measured:
[1] = RSV long CPE assay (cytopathic effect assay), CC50 toxicity in vitro; type: cell-based; conditions: human, Hep2 cells, CCK-8 readout, top concentration 100 μM
Procedure: (§1) Detect EC50 and CC50 values of anti RSV respiratory tract virus compounds through the cytopathic effect assay.
(§2) The cell plate was centrifugated (300 rpm) to make the cells adherent to the wall, placed into a 37° C., 5% CO2 incubator overnight.
(§3) 1) the compound in 100% DMSO underwent a semi logarithmic dilution, then was added to the cell plate with a Echo liquid handler. Ensure that the final concentration of DMSO was 1%;
(§4) 2) Cell-control hole: no compound and viruse were added; virus-control hole: no compound was added.
(§5) 2) add CCK-8 (Dojindo-CK04-20, 6 μL/hole) to 384 well plate with Multidrop® automatic liquid distributor;
(§6) 3) place the plate at a 37° C., 5% CO2 culture incubator for 3˜4 h, read the absorbance value with SPECTRA max 340PC_Molecular device at 450 nm and 630 nm;

[2] = system: RSV respiratory tract virus (A long strain); assay: RSV long CPE assay (cytopathic effect assay), EC50; type: cell-based; conditions: human respiratory syncytial virus, HEp-2, 120 h; Hep2 cells infected with RSV A long strain, 5 days, CCK-8 readout
Procedure: as §1
Virus strain: RSV respiratory tract virus (A long strain)
as §2, §3, §4
dilute RSV viruses to 100 TCID50/30 μL with medium cultured with 4° C. cells, and then add the diluted viruses to a cell plate (30 μL/hole) with Multidrop® automatic liquid distributor, and then placed into a 37° C., 5% CO2 culture incubator for 5 days.
1) after 5 days, observe the pathological change in each hole.
as §5, §6

Compound | EC50 [2] | CC50 at 5 days [1] | CC50 ([1]; 5 days)
CC(C)OC(=O)N1CC2(C1)C(=O)N(Cc1nc3c(n1CCCCO)CCCC3)c1ccccc12 [Embodiment 62, Isopropyl 1′-((1-(4-hydroxybutyl)-4,5,6,7-tetrahydro-1H-benzo[d]imidazol-2-yl)methyl)-2′-oxospiro[azetidine-3,3′-indoline]-1-carboxylate] | < 0.1 µM | > 100 µM | –
CCOC(=O)N1CC2(C1)C(=O)N(Cc1nc3c(n1CCCC(F)(F)F)CCCC3)c1cc(F)ccc12 [Embodiment 83, Ethyl 6′-fluoro-2′-oxo-1′-((1-(4,4,4-trifluorobutyl)-4,5,6,7-tetrahydro-1H-benzo[d]imidazol-2-yl)methyl)spiro[azetidine-3,3′-indoline]-1-carboxylate] | < 0.1 µM | > 100 µM | –
O=C1N(Cc2nc3c(n2CCCC(F)(F)F)CCCC3)c2ccccc2C12CN(S(=O)(=O)C1CC1)C2 [Embodiment 98, 1-(Cyclopropylsulfonyl)-1′-((1-(4,4,4-trifluorobutyl)-4,5,6,7-tetrahydro-1H-benzo[d]imidazol-2-yl)methyl)spiro[azetidine-3,3′-indoline]-2′-one] | < 0.1 µM | > 100 µM | –
CC(C)OC(=O)N1CC2(C1)C(=O)N(Cc1nc3c(n1CCCC(F)F)CCCC3)c1ccccc12 [Embodiment 64, Isopropyl 1′-((1-(4,4-difluorobutyl)-4,5,6,7-tetrahydro-1H-benzo[d]imidazol-2-yl)methyl)-2′-oxospiro[azetidine-3,3′-indoline]-1-carboxylate] | < 0.1 µM | > 100 µM | –
CC(C)OC(=O)N1CC2(C1)C(=O)N(Cc1nc3c(n1CCCC(F)(F)F)CCCC3)c1ccccc12 [Embodiment 65, Isopropyl 2′-oxo-1′-((1-(4,4,4-trifluorobutyl)-4,5,6,7-tetrahydro-1H-benzo[d]imidazol-2-yl)methyl)spiro[azetidine-3,3′-indoline]-1-carboxylate] | < 0.1 µM | > 100 µM | –
CCOC(=O)N1CC2(C1)C(=O)N(Cc1nc(CC)c(CC)n1CCCCO)c1ccccc12 [Embodiment 101, Ethyl 1′-((4,5-diethyl-1-(4-hydroxybutyl)-1H-imidazol-2-yl)methyl)-2′-oxospiro[azetidine-3,3′-indoline]-1-carboxylate] | – | > 100 µM | –
CC(C)OC(=O)N1CC2(C1)C(=O)N(Cc1nc3c(n1CCCCO)CCCC3)c1cccc(Cl)c12 [Embodiment 85, Isopropyl 4′-chloro-1′-((1-(4-hydroxybutyl)-4,5,6,7-tetrahydro-1H-benzo[d]imidazol-2-yl)methyl)-2′-oxospiro[azetidine-3,3′-indoline]-1-carboxylate] | < 0.1 µM | – | > 100 µM
CC(C)OC(=O)N1CC2(C1)C(=O)N(Cc1nc3c(n1CCCC(F)(F)F)CCCC3)c1ccc(Br)cc12 [Embodiment 79, Isopropyl 5′-bromo-2′-oxo-1′-((1-(4,4,4-trifluorobutyl)-4,5,6,7-tetrahydro-1H-benzo[d]imidazol-2-yl)methyl)spiro[azetidine-3,3′-indoline]-1-carboxylate] | < 0.1 µM | > 100 µM | –
CCC(=O)N1CC2(C1)C(=O)N(Cc1nc3c(n1CCCC(F)(F)F)CCCC3)c1ccccc12 [Embodiment 94, 1-Propionyl-1′-((1-(4,4,4-trifluorobutyl)-4,5,6,7-tetrahydro-1H-benzo[d]imidazol-2-yl)methyl)spiro[azetidine-3,3′-indoline]-2′-one] | < 0.1 µM | > 100 µM | –
CC(C)OC(=O)N1CC2(C1)C(=O)N(Cc1nc3c(n1CC(F)(F)CCF)CCCC3)c1ccccc12 [Embodiment 66, Isopropyl 2′-oxo-1′-((1-(2,2,4-trifluorobutyl)-4,5,6,7-tetrahydro-1H-benzo[d]imidazol-2-yl)methyl)spiro[azetidine-3,3′-indoline]-1-carboxylate] | < 0.1 µM | > 100 µM | –
CC(C)C(=O)N1CC2(C1)C(=O)N(Cc1nc3c(n1CCCC(F)(F)F)CCCC3)c1ccccc12 [Embodiment 95, 1-Isobutyryl-1′-((1-(4,4,4-trifluorobutyl)-4,5,6,7-tetrahydro-1H-benzo[d]imidazol-2-yl)methyl)spiro[azetidine-3,3′-indoline]-2′-one] | < 0.1 µM | > 100 µM | –
O=CN1CC2(C1)C(=O)N(Cc1nc3c(n1CCCC(F)(F)F)CCCC3)c1ccccc12 [Embodiment 90, 2′-Oxo-1′-((1-(4,4,4-trifluorobutyl)-4,5,6,7-tetrahydro-1H-benzo[d]imidazol-2-yl)methyl)spiro[azetidine-3,3′-indoline]-1-carbaldehyde] | < 0.1 µM | > 100 µM | –
CCOC(=O)N1CC2(C1)C(=O)N(Cc1nc3c(n1CCCC(F)(F)F)CCCC3)c1cnccc12 [Embodiment 87, Ethyl 2′-oxo-1′-((1-(4,4,4-trifluorobutyl)-4,5,6,7-tetrahydro-1H-benzo[d]imidazol-2-yl)methyl)-1′,2′-dihydrospiro[azetidine-3,3′-pyrrolo[2,3-c]pyridine]-1-carboxylate] | < 0.1 µM | > 100 µM | –
CC(C)C(=O)N1CC2(C1)C(=O)N(Cc1nc3c(n1CCCC(F)(F)F)CCC3)c1ccccc12 [Embodiment 105, 1-Isobutyryl-1′-((1-(4,4,4-trifluorobutyl)-1,4,5,6-tetrahydrocyclopenta[d]imidazol-2-yl)methyl)spiro[azetidine-3,3′-indoline]-2′-one] | < 0.1 µM | > 100 µM | –

Second part, led by results:

EC50 [2] | Compound | CC50 at 5 days [1] | CC50 ([1]; 5 days)
< 0.1 µM | CCOC(=O)N1CC2(C1)C(=O)N(Cc1nc3c(n1CCCC(F)(F)F)CCC3)c1ccccc12 [Embodiment 104, Ethyl 2′-oxo-1′-((1-(4,4,4-trifluorobutyl)-1,4,5,6-tetrahydrocyclopenta[d]imidazol-2-yl)methyl)spiro[azetidine-3,3′-indoline]-1-carboxylate] | > 100 µM | –
< 0.1 µM | CC(C)S(=O)(=O)N1CC2(C1)C(=O)N(Cc1nc3c(n1CCCC(F)(F)F)CCCC3)c1ccccc12 [Embodiment 99, 1-(Isopropylsulfonyl)-1′-((1-(4,4,4-trifluorobutyl)-4,5,6,7-tetrahydro-1H-benzo[d]imidazol-2-yl)methyl)spiro[azetidine-3,3′-indoline]-2′-one] | > 100 µM | –
< 0.1 µM | CC(C)OC(=O)N1CC2(C1)C(=O)N(Cc1nc3c(n1CC(F)(F)C(C)C)CCCC3)c1ccccc12 [Embodiment 69, Isopropyl 1′-((1-(2,2-difluoro-3-methylbutyl)-4,5,6,7-tetrahydro-1H-benzo[d]imidazol-2-yl)methyl)-2′-oxospiro[azetidine-3,3′-indoline]-1-carboxylate] | > 100 µM | –
< 0.1 µM | CC(C)OC(=O)N1CC2(C1)C(=O)N(Cc1nc3c(n1CCCC(F)(F)F)CCCC3)c1cnccc12 [Embodiment 88, Isopropyl 2′-oxo-1′-((1-(4,4,4-trifluorobutyl)-4,5,6,7-tetrahydro-1H-benzo[d]imidazol-2-yl)methyl)-1′,2′-dihydrospiro[azetidine-3,3′-pyrrolo[2,3-c]pyridine]-1-carboxylate] | > 100 µM | –
< 0.1 µM | CC(C)OC(=O)N1CC2(C1)C(=O)N(Cc1nc3c(n1CCCCO)CCC3)c1ccccc12 [Embodiment 103, Isopropyl 1′-((1-(4-hydroxybutyl)-1,4,5,6-tetrahydrocyclopenta[d]imidazol-2-yl)methyl)-2′-oxospiro[azetidine-3,3′-indoline]-1-carboxylate] | > 100 µM | –
< 0.1 µM | O=C(C1CC1)N1CC2(C1)C(=O)N(Cc1nc3c(n1CCCC(F)(F)F)CCCC3)c1cnccc12 [Embodiment 89, 1-(Cyclopropanecarbonyl)-1′-((1-(4,4,4-trifluorobutyl)-4,5,6,7-tetrahydro-1H-benzo[d]imidazol-2-yl)methyl)spiro[azetidine-3,3′-pyrrolo[2,3-c]pyridine]-2′(1′H)-one] | > 100 µM | –
< 0.1 µM | CC(C)OC(=O)N1CC2(C1)C(=O)N(Cc1nc3c(n1CCCCO)CCCC3)c1ccc(Br)cc12 [Embodiment 78, Isopropyl 5′-bromo-1′-((1-(4-hydroxybutyl)-4,5,6,7-tetrahydro-1H-benzo[d]imidazol-2-yl)methyl)-2′-oxospiro[azetidine-3,3′-indoline]-1-carboxylate] | > 100 µM | –
< 0.1 µM | CCOC(=O)N1CC2(C1)C(=O)N(Cc1nc3c(n1CCCC(F)(F)F)CCCC3)c1ccccc12 [Embodiment 75, Ethyl 2′-oxo-1′-((1-(4,4,4-trifluorobutyl)-4,5,6,7-tetrahydro-1H-benzo[d]imidazol-2-yl)methyl)spiro[azetidine-3,3′-indoline]-1-carboxylate] | > 100 µM | –
< 0.1 µM | CCOC(=O)N1CC2(C1)C(=O)N(Cc1nc3c(n1CCC(C)C)CCCC3)c1ccccc12 [Embodiment 72, Ethyl 1′-((1-isopentyl-4,5,6,7-tetrahydro-1H-benzo[d]imidazol-2-yl)methyl)-2′-oxospiro[azetidine-3,3′-indoline]-1-carboxylate] | > 100 µM | –
< 0.1 µM | CC(C)OC(=O)N1CC2(C1)C(=O)N(Cc1nc3c(n1CCCC(F)(F)F)CCC3)c1ccccc12 [Embodiment 102, Isopropyl 2′-oxo-1′-((1-(4,4,4-trifluorobutyl)-1,4,5,6-tetrahydrocyclopenta[d]imidazol-2-yl)methyl)spiro[azetidine-3,3′-indoline]-1-carboxylate] | > 100 µM | –
